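In this assay, cells in 96-well plates receive the compound at five concentrations for 48 hours. Endpoints are linearly interpolated between the surrounding concentrations. The concentration for 50% growth inhibition is given as GI50.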 The source made the active and inactive calls. Cut-off read from the data, not from the text of the source: active = GI50 up to about 1.1 µM and inactive = higher.
Legend:
Assay in all cases: DTP human tumour cell line panel, 48 h
MOLT-4 = system: MOLT-4
OVCAR-8 = system: OVCAR-8
SN12C = system: SN12C
K562 = system: K562
HCT-116 = system: HCT-116
MDA-N = system: MDA-N
786-0 = system: 786-0
T47D = system: T47D
COLO 205 = system: COLO 205
Hs-578T = system: Hs-578T
UACC-62 = system: UACC-62
OVCAR-4 = system: OVCAR-4
OVCAR-5 = system: OVCAR-5
UACC-257 = system: UACC-257
KM12 = system: KM12
HCC 2998 = system: HCC 2998
RPMI-8226 = system: RPMI-8226
SF-268 = system: SF-268
NCI-H460 = system: NCI-H460
IGROV-1 = system: IGROV-1

Measured: GI50

CC(C)(C)c1ccc(CN2CCN(C(c3ccccc3)c3ccc(Cl)cc3)CC2)cc1 (stereo not given)
inactive: MOLT-4 44.6 µM | OVCAR-8 > 100 µM | SN12C > 100 µM | K562 36.6 µM | HCT-116 25.7 µM | MDA-N 49.4 µM | 786-0 42.4 µM | T47D 24.2 µM | COLO 205 38.8 µM | Hs-578T > 100 µM | UACC-62 > 100 µM | OVCAR-4 > 100 µM | OVCAR-5 60.1 µM | UACC-257 35.9 µM | KM12 78 µM | HCC 2998 31 µM | RPMI-8226 33.3 µM | SF-268 77.6 µM | NCI-H460 95.1 µM | IGROV-1 > 100 µM

Nc1nc(N)c2nc(CNc3ccc(C(=O)O)cc3)[nH]c2n1
inactive: MOLT-4 > 100 µM | OVCAR-8 > 100 µM | SN12C > 100 µM | K562 > 100 µM | HCT-116 > 100 µM | MDA-N > 100 µM | 786-0 > 100 µM | T47D > 100 µM | COLO 205 > 100 µM | Hs-578T > 100 µM | UACC-62 > 100 µM | OVCAR-4 > 100 µM | OVCAR-5 > 100 µM | UACC-257 > 100 µM | KM12 > 100 µM | HCC 2998 27.9 µM | RPMI-8226 > 100 µM | SF-268 > 100 µM | NCI-H460 > 100 µM | IGROV-1 > 100 µM

O=C1C=C(Nc2ccccc2C(=O)CC(=O)C(=O)Nc2cccc(C(F)(F)F)c2)c2ccccc2C1=O
inactive: MOLT-4 4.83 µM | OVCAR-8 17.3 µM | SN12C 17.1 µM | K562 8.32 µM | HCT-116 23 µM | MDA-N 12.6 µM | 786-0 25.8 µM | T47D > 100 µM | COLO 205 66.8 µM | Hs-578T 21 µM | UACC-62 15.8 µM | OVCAR-4 17.9 µM | OVCAR-5 > 77.1 µM | UACC-257 15.3 µM | KM12 24 µM | HCC 2998 > 41.8 µM | RPMI-8226 17.6 µM | SF-268 17.2 µM | NCI-H460 27.7 µM | IGROV-1 28.4 µM

O=C1OC(c2ccccc2)=N/C1=C\c1ccc(F)cc1
inactive: MOLT-4 50.6 µM | OVCAR-8 47 µM | SN12C > 100 µM | K562 > 100 µM | HCT-116 > 100 µM | MDA-N > 100 µM | 786-0 > 100 µM | T47D > 100 µM | COLO 205 > 100 µM | Hs-578T > 100 µM | UACC-62 > 100 µM | OVCAR-4 97.3 µM | OVCAR-5 > 100 µM | UACC-257 > 100 µM | KM12 > 100 µM | HCC 2998 > 100 µM | RPMI-8226 38.9 µM | SF-268 66.8 µM | NCI-H460 > 100 µM | IGROV-1 71.3 µM

CCOC(=O)c1c(Br)c(-c2ccc([N+](=O)[O-])cc2)c(Br)n1C
inactive: MOLT-4 > 10 µM | OVCAR-8 > 10 µM | SN12C 9.06 µM | K562 > 10 µM | HCT-116 > 10 µM | MDA-N > 10 µM | 786-0 > 10 µM | T47D > 10 µM | COLO 205 > 10 µM | Hs-578T 5.06 µM | UACC-62 7.28 µM | OVCAR-4 > 10 µM | OVCAR-5 > 10 µM | UACC-257 > 10 µM | KM12 > 10 µM | HCC 2998 > 10 µM | RPMI-8226 > 10 µM | SF-268 > 10 µM | NCI-H460 > 10 µM | IGROV-1 > 10 µM

Cc1c(C)c2c(c(N)c1C#N)C(=O)N(Cc1ccc(S(N)(=O)=O)cc1)C2=O
inactive: MOLT-4 > 100 µM | OVCAR-8 4.65 µM | SN12C > 53.8 µM | K562 > 100 µM | HCT-116 32.9 µM | MDA-N > 100 µM | 786-0 16.8 µM | T47D > 39.2 µM | COLO 205 > 100 µM | Hs-578T > 46.3 µM | UACC-62 > 100 µM | OVCAR-4 > 100 µM | OVCAR-5 24.3 µM | UACC-257 > 100 µM | KM12 > 100 µM | HCC 2998 > 100 µM | RPMI-8226 > 100 µM | SF-268 16.5 µM | NCI-H460 > 100 µM | IGROV-1 > 38.4 µM

CN(C)CC1(Cc2ccccc2)CCC(Cc2ccccc2)C1=O (stereo not given)
inactive: MOLT-4 2.88 µM | OVCAR-8 5.73 µM | SN12C 9.77 µM | K562 2.79 µM | HCT-116 11.1 µM | MDA-N 11 µM | 786-0 2.07 µM | T47D 8.61 µM | COLO 205 6.85 µM | Hs-578T 15.6 µM | UACC-62 16.5 µM | OVCAR-4 16.3 µM | OVCAR-5 18 µM | UACC-257 14.9 µM | KM12 8.36 µM | HCC 2998 7.05 µM | RPMI-8226 1.89 µM | SF-268 14.8 µM | NCI-H460 12.2 µM | IGROV-1 9.04 µM

CC(=O)N1CC(C)(C)c2c(C)c(O)c(C)c(C)c21
inactive: MOLT-4 > 100 µM | OVCAR-8 > 100 µM | SN12C > 100 µM | K562 > 100 µM | HCT-116 > 100 µM | MDA-N > 100 µM | 786-0 > 100 µM | T47D > 100 µM | COLO 205 > 100 µM | Hs-578T > 100 µM | UACC-62 > 100 µM | OVCAR-4 > 100 µM | OVCAR-5 > 100 µM | UACC-257 > 100 µM | KM12 > 100 µM | HCC 2998 > 100 µM | RPMI-8226 > 100 µM | SF-268 > 100 µM | NCI-H460 > 100 µM | IGROV-1 > 100 µM

O=C(Nn1c(-c2ccccc2)nc2ccccc2c1=O)c1ccc(O)cc1
inactive: MOLT-4 > 100 µM | OVCAR-8 > 100 µM | SN12C > 100 µM | K562 > 100 µM | HCT-116 > 100 µM | MDA-N > 100 µM | 786-0 > 100 µM | T47D > 100 µM | COLO 205 > 100 µM | Hs-578T > 100 µM | UACC-62 > 100 µM | OVCAR-4 > 100 µM | OVCAR-5 > 100 µM | UACC-257 > 100 µM | KM12 > 100 µM | HCC 2998 > 100 µM | RPMI-8226 > 100 µM | SF-268 > 100 µM | NCI-H460 > 100 µM | IGROV-1 > 100 µM

CCOC(=O)/C=C\C(C#N)(C#N)/N=C/c1ccsc1
inactive: MOLT-4 1.21 µM | OVCAR-8 3.86 µM | SN12C 18.2 µM | K562 3.13 µM | HCT-116 2.17 µM | MDA-N 8.91 µM | 786-0 2.24 µM | T47D 2 µM | COLO 205 1.9 µM | Hs-578T 19.5 µM | UACC-62 17 µM | OVCAR-4 6.43 µM | OVCAR-5 18.2 µM | UACC-257 6.81 µM | KM12 19.5 µM | HCC 2998 16 µM | RPMI-8226 1.33 µM | SF-268 6.75 µM | NCI-H460 20.5 µM | IGROV-1 14.5 µM

Reference: ChEMBL document CHEMBL1201862, “PubChem BioAssay data set” (2004)
